Reference: ChEMBL document CHEMBL5523719, “Structure-activity relationship study of new carbazole sulfonamide derivatives as anticancer agents with dual-target mechanism” (Eur J Med Chem, 2024)
Calls of active or inactive are those of the source. No cut-off for these calls is given here.

Assays:
MCF7 [1] = assay: Induction of apoptosis in human MCF7 cells assessed as late apoptotic cells at 6.25 nM measured after 48 hrs by AnnexinV/PI double staining assays (reference value: 2.60%); assay type: functional
MCF7 [2] = assay: Induction of apoptosis in human MCF7 cells assessed as late apoptotic cells at 12.5 nM measured after 48 hrs by AnnexinV/PI double staining assays (reference value: 2.60%); assay type: functional
MCF7 [3] = assay: Induction of cell cycle arrest in human MCF7 cells assessed as accumulation of cells at G2/M phase at 500 nM measured after 24 hrs by flow cytometry (reference value: 22.84%); assay type: functional
MIA PaCa-2 = assay: Antiproliferation activity against human MIA PaCa-2 cells measured after 72 hrs incubation by MTT assay; assay type: functional, cell-based; conditions: MIA PaCa-2, 72 h
[4] = molecular target: DNA topoisomerase 2-alpha (Homo sapiens) (UniProt P11388); assay: Inhibition of human DNA topoisomerase 2 assessed as relaxation of supercoiled pBR322 DNA as substrate at 20 uM incubated for 30 mins by gel staining based electrophoresis analysis
MCF7 [5] = assay: Induction of apoptosis in human MCF7 cells assessed as early apoptotic cells at 50 nM measured after 48 hrs by AnnexinV/PI double staining assays (reference value: 5.32%); assay type: functional
[6] = molecular target: T1, DNA topoisomerase 1 (Homo sapiens) (UniProt P11387); assay: Inhibition of human DNA topoisomerase 1 assessed as relaxation of supercoiled pBR322 DNA as substrate incubated for 30 mins by gel staining based electrophoresis analysis; conditions: dose 20-200 µM
T1 sequence (whole entry): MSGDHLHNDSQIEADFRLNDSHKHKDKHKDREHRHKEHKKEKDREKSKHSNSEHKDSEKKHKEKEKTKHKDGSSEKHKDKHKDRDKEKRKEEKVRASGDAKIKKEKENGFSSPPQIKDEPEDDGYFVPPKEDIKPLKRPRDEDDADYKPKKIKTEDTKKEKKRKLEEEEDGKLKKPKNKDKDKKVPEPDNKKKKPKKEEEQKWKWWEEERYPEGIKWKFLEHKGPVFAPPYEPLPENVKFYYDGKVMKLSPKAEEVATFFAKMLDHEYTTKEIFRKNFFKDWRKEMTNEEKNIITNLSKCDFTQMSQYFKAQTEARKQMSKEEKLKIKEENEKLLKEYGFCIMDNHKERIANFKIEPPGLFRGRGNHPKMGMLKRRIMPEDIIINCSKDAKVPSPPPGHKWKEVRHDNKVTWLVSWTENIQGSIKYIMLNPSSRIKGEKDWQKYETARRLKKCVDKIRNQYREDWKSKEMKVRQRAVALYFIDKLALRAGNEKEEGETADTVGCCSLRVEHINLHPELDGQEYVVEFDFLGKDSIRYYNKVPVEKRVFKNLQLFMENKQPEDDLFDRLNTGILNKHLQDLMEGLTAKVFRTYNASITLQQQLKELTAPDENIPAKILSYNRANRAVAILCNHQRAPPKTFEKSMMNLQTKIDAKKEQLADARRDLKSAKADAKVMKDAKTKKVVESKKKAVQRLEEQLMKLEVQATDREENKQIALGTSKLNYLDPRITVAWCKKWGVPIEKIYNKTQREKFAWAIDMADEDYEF

MCF7 [7] = assay: Induction of apoptosis in human MCF7 cells assessed as early apoptotic cells at 12.5 nM measured after 48 hrs by AnnexinV/PI double staining assays (reference value: 5.32%); assay type: functional
MCF7 [8] = assay: Induction of apoptosis in human MCF7 cells assessed as late apoptotic cells at 25 nM measured after 48 hrs by AnnexinV/PI double staining assays (reference value: 2.60%); assay type: functional
HMEC-1 = assay: Angiogenic activity against human HMEC-1 cells assessed as decrease in vascular area measured after 48 hrs by Endothelial tube formation assay; assay type: functional, cell-based; conditions: dose 1-100 nM
MCF7 [9] = assay: Antiproliferation activity against human MCF7 cells measured after 72 hrs incubation by MTT assay; assay type: functional, cell-based; conditions: MCF7, 72 h

DNA topoisomerase 2-alpha (Homo sapiens), sequence (P11388 whole entry): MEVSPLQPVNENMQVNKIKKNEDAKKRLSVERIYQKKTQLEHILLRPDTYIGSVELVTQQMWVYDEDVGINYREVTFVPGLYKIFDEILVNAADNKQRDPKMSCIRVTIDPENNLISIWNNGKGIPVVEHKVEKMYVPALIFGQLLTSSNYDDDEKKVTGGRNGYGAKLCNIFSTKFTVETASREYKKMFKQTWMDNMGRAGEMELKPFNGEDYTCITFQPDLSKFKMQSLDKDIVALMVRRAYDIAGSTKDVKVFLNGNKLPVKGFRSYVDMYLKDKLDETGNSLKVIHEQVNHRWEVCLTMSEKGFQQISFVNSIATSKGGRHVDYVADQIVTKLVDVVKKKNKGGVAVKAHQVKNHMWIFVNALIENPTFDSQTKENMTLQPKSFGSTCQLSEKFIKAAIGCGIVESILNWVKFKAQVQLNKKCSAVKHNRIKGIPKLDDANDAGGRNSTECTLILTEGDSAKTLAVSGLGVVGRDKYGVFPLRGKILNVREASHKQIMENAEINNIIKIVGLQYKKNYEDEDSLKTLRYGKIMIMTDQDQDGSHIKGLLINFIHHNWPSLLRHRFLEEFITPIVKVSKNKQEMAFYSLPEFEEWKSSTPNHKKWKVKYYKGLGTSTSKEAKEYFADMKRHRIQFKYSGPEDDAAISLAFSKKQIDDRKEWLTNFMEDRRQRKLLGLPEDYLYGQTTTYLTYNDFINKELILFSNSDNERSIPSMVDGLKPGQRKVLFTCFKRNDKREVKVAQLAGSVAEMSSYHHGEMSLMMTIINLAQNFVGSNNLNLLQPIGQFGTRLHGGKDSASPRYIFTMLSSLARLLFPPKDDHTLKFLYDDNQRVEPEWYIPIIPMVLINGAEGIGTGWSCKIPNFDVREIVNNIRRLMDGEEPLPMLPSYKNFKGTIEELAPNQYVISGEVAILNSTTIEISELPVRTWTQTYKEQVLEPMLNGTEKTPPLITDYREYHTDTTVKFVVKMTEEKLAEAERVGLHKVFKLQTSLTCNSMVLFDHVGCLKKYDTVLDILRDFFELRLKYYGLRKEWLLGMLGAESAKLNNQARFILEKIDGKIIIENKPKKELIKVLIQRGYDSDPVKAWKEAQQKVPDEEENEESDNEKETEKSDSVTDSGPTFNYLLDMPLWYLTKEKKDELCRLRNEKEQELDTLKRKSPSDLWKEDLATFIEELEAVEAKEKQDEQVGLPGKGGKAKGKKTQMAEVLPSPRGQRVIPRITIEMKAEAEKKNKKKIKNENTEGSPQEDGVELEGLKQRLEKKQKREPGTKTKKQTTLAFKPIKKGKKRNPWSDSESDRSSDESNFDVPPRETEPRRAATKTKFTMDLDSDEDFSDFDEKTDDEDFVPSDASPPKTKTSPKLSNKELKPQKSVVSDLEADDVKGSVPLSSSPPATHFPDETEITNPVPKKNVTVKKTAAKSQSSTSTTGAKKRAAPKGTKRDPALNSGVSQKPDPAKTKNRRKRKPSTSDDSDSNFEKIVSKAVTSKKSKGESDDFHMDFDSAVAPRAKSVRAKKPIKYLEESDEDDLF

SMILES: COc1cc(NS(=O)(=O)c2ccc3c(c2)c2ccc(N)cc2n3C)c(OC)cc1Cl
- Activity (MCF7 [1]): 7.06%
- Activity (MCF7 [2]): 8.66%
- Activity (MCF7 [3]): 53.2%
- IC50 (MIA PaCa-2): 13.3 nM
- inhibition [4]: inactive
- Activity (MCF7 [5]): 50.98%
- inhibition [6]: Dose-Dependent Effect
- Activity (MCF7 [7]): 26.99%
- Activity (MCF7 [8]): 14.03%
- Activity (HMEC-1): Dose-Dependent Effect
- IC50 (MCF7 [9]): 12.2 nM
